Tests used:
Assay type in all cases: in vivo
[1] = system: alexandergrass (Brachiaria plantaginea); experiment: Test E pre-/postemergence/post directed
Source text: (§1) Seeds, tubers, or plant parts of alexandergrass (Brachiaria plantaginea), annual bluegrass (Poa annua), arrowleaf sida (Sida rhombifolia), barnyardgrass (Echinochloa crus-galli), bermudagrass (Cynodon dactylon), citrus (Citrus sinensis), common chickweed (Stellaria media), common purslane (Portulaca oleracea), common ragweed (Ambrosia elatior), common groundsel (Senecio vulgaris), dallisgrass (Paspalum dilatatum), goosegrass (Eleusine indica), green foxtail (Setaria viridis), guineagrass (Panicum maximum), itchgrass (Rottboellia exaltata), johnson grass (Sorghum halepense), kochia (Kochia scoparia), large crabgrass (Digitaria sanguinalis), leafy spurge (Euphorbia esula), pitted morningglory (Ipomoea lacunosa), purple nutsedge (Cyperus rotundus), quackgrass (Agropyron repens), Russian thistle (Salsola kali), sandbur (Cenchrus echinatus), sourgrass (Trichachne insularis), Spanishneedles (Bidens bipinnata), sugarcane (Saccharum officinarum), surinam grass (Brachiaria decumbens) and tall mallow (Malva sylvestris) were planted into greenhouse pots of flats containing greenhouse planting medium. Plant species were grown grown in separate pots or individual compartments. Preemergence applications were made within one day of planting the seed or plant part. Postemergence applications were applied when the plants were in the two to four leaf stage (three to twenty cm).
(§2) Test chemicals were formulated in a non-phytotoxic solvent mixture which included a surfactant and applied preemergence to the soil surface, postemergence to the plants or as a post directed spray to plants and soil at the base of the target species. Untreated control plants and treated plants were placed in the greenhouse and visually evaluated for injury 13 to 21 days after herbicide application. Plant response ratings, summarized in Table E, are based on a 0 to 100 scale where 0 is no injury and 100 is complete control. A dash (−) response means no test result.

[2] = system: large crabgrass (Digitaria sanguinalis); experiment: Test E pre-/postemergence/post directed
Source text: as §1, §2

[3] = system: johnson grass (Sorghum halepense); experiment: Test E pre-/postemergence/post directed
Source text: as §1, §2

[4] = system: sandbur (Cenchrus echinatus); experiment: Test E pre-/postemergence/post directed; settings: PREEMERGENCE
Source text: as §1, §2

[5] = system: Spanishneedles (Bidens bipinnata); experiment: Test E pre-/postemergence/post directed
Source text: as §1, §2

[6] = system: common groundsel (Senecio vulgaris); experiment: Test E pre-/postemergence/post directed
Source text: as §1, §2

[7] = system: common ragweed (Ambrosia elatior); experiment: Test E pre-/postemergence/post directed
Source text: as §1, §2

[8] = system: pitted morningglory (Ipomoea lacunosa); experiment: Test E pre-/postemergence/post directed
Source text: as §1, §2

[9] = system: bermudagrass (Cynodon dactylon); experiment: Test E pre-/postemergence/post directed; settings: PREEMERGENCE
Source text: as §1, §2

[10] = system: itchgrass (Rottboellia exaltata); experiment: Test E pre-/postemergence/post directed
Source text: as §1, §2

[11] = system: common ragweed (Ambrosia elatior); experiment: Test E pre-/postemergence/post directed; design: key: 0 is no effect; 100 is complete control; settings: PREEMERGENCE, Rate 250 g/ha
Outline: (§3)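 Injury was scored visually on a 0 to 100 scale (100 = complete control) 13 to 21 days after treatment of greenhouse-grown plants. Test chemicals, in a surfactant-containing non-phytotoxic solvent, were sprayed onto soil within a day of planting, onto plants at the two to four leaf stage, or directed at the base of the plants.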

[12] = system: common purslane (Portulaca oleracea); experiment: Test E pre-/postemergence/post directed; design: key: 0 is no effect; 100 is complete control
Outline: as §3

[13] = system: goosegrass (Eleusine indica); experiment: Test E pre-/postemergence/post directed; design: key: 0 is no effect; 100 is complete control
Outline: as §3

[14] = system: bermudagrass (Cynodon dactylon); experiment: Test E pre-/postemergence/post directed; design: key: 0 is no effect; 100 is complete control; settings: PREEMERGENCE
Outline: as §3

[15] = system: johnsongrass (Sorghum halepense); experiment: Test C; settings: PREEMERGENCE
[16] = system: cocklebur (Xanthium strumarium); experiment: Test C; design: key: 0 was no effect; 100 was complete control; settings: PREEMERGENCE
[17] = system: surinam grass (Brachiaria decumbens); experiment: Test E pre-/postemergence/post directed; settings: PREEMERGENCE
Source text: as §1, §2

[18] = system: large crabgrass (Digitaria sanguinalis); experiment: Test E pre-/postemergence/post directed; design: key: 0 is no effect; 100 is complete control; settings: PREEMERGENCE
Outline: as §3

[19] = system: redroot pigweed (Amaranthus retroflexus); experiment: Test C; design: key: 0 was no effect; 100 was complete control; settings: PREEMERGENCE
[20] = system: field bindweed (Convolvulus arvensis); experiment: Test C; design: key: 0 was no effect; 100 was complete control; settings: PREEMERGENCE

Cc1cnc(-n2cnc(C(F)(F)F)c2)nc1Cc1cccc(C(F)(F)F)c1 [Compound 44]
Plant response rating, Alexandergrass ([1]; POSTEMERGENCE, Rate 125 g/ha): 10
Plant response rating, Alexandergrass ([1]; POSTEMERGENCE, Rate 250 g/ha): 10
Plant response rating, Alexandergrass ([1]; PREEMERGENCE, Rate 64 g/ha): 40
Plant response rating, Alexandergrass ([1]; PREEMERGENCE, Rate 125 g/ha): 40
Plant response rating, Alexandergrass ([1]; PREEMERGENCE, Rate 250 g/ha): 50
Plant response rating, Large crabgrass ([2]; POSTEMERGENCE, Rate 125 g/ha): 10
Plant response rating, Large crabgrass ([2]; POSTEMERGENCE, Rate 250 g/ha): 10
Plant response rating, Large crabgrass ([2]; PREEMERGENCE, Rate 64 g/ha): 60
Plant response rating, Large crabgrass ([2]; PREEMERGENCE, Rate 125 g/ha): 70
Plant response rating, Large crabgrass ([2]; PREEMERGENCE, Rate 250 g/ha): 60
Plant response rating, Johnsongrass ([3]; POSTEMERGENCE, Rate 125 g/ha): 5
Plant response rating, Johnsongrass ([3]; POSTEMERGENCE, Rate 250 g/ha): 10
Plant response rating, Johnsongrass ([3]; PREEMERGENCE, Rate 32 g/ha): 30
Plant response rating, Johnsongrass ([3]; PREEMERGENCE, Rate 125 g/ha): 60
Plant response rating, Johnsongrass ([3]; PREEMERGENCE, Rate 250 g/ha): 75
Plant response rating, Sandbur ([4]; Rate 64 g/ha): 60
Plant response rating, Sandbur ([4]; Rate 125 g/ha): 70
Plant response rating, Sandbur ([4]; Rate 250 g/ha): 80
Plant response rating, Spanishneedles ([5]; POSTEMERGENCE, Rate 125 g/ha): 10
Plant response rating, Spanishneedles ([5]; POSTEMERGENCE, Rate 250 g/ha): 10
Plant response rating, Spanishneedles ([5]; PREEMERGENCE, Rate 32 g/ha): 20
Plant response rating, Spanishneedles ([5]; PREEMERGENCE, Rate 64 g/ha): 60
Plant response rating, Spanishneedles ([5]; PREEMERGENCE, Rate 125 g/ha): 70
Plant response rating, Spanishneedles ([5]; PREEMERGENCE, Rate 250 g/ha): 98
Plant response rating, Com. groundsel ([6]; POSTEMERGENCE, Rate 125 g/ha): 10
Plant response rating, Com. groundsel ([6]; POSTEMERGENCE, Rate 250 g/ha): 10
Plant response rating, Com. groundsel ([6]; PREEMERGENCE, Rate 32 g/ha): 98
Plant response rating, Com. ragweed ([7]; POSTEMERGENCE, Rate 125 g/ha): 10
Plant response rating, Com. ragweed ([7]; POSTEMERGENCE, Rate 250 g/ha): 20
Plant response rating, Com. ragweed ([7]; PREEMERGENCE, Rate 32 g/ha): 40
Plant response rating, Com. ragweed ([7]; PREEMERGENCE, Rate 64 g/ha): 85
Plant response rating, Com. ragweed ([7]; PREEMERGENCE, Rate 125 g/ha): 98
Plant response rating, P. morninglory ([8]; POSTEMERGENCE, Rate 125 g/ha): 30
Plant response rating, P. morninglory ([8]; POSTEMERGENCE, Rate 250 g/ha): 40
Plant response rating, P. morninglory ([8]; PREEMERGENCE, Rate 32 g/ha): 20
Plant response rating, P. morninglory ([8]; PREEMERGENCE, Rate 64 g/ha): 30
Plant response rating, P. morninglory ([8]; PREEMERGENCE, Rate 125 g/ha): 50
Plant response rating, P. morninglory ([8]; PREEMERGENCE, Rate 250 g/ha): 50
Plant response rating, Bermudagrass ([9]; Rate 32 g/ha): 30
Plant response rating, Bermudagrass ([9]; Rate 64 g/ha): 80
Plant response rating, Bermudagrass ([9]; Rate 125 g/ha): 98
Plant response rating, Itchgrass ([10]; POSTEMERGENCE, Rate 125 g/ha): 5
Plant response rating, Itchgrass ([10]; POSTEMERGENCE, Rate 250 g/ha): 10
Plant response rating, Itchgrass ([10]; PREEMERGENCE, Rate 125 g/ha): 30
Plant response rating, Itchgrass ([10]; PREEMERGENCE, Rate 250 g/ha): 40
Plant response rating, Com. ragweed [11]: 100
Plant response rating, Com. purslane ([12]; POSTEMERGENCE, Rate 125 g/ha): 70
Plant response rating, Com. purslane ([12]; POSTEMERGENCE, Rate 250 g/ha): 70
Plant response rating, Com. purslane ([12]; PREEMERGENCE, Rate 32 g/ha): 80
Plant response rating, Com. purslane ([12]; PREEMERGENCE, Rate 64 g/ha): 100
Plant response rating, Com. purslane ([12]; PREEMERGENCE, Rate 125 g/ha): 100
Plant response rating, Com. purslane ([12]; PREEMERGENCE, Rate 250 g/ha): 100
Plant response rating, Goosegrass ([13]; POSTEMERGENCE, Rate 125 g/ha): 10
Plant response rating, Goosegrass ([13]; POSTEMERGENCE, Rate 250 g/ha): 20
Plant response rating, Goosegrass ([13]; PREEMERGENCE, Rate 32 g/ha): 98
Plant response rating, Goosegrass ([13]; PREEMERGENCE, Rate 64 g/ha): 98
Plant response rating, Goosegrass ([13]; PREEMERGENCE, Rate 125 g/ha): 98
Plant response rating, Goosegrass ([13]; PREEMERGENCE, Rate 250 g/ha): 100
Plant response rating, Bermudagrass ([14]; Rate 250 g/ha): 100

CCc1cnc(-n2ccc(C(F)(F)F)n2)nc1Cc1cccc(C(F)(F)F)c1 [Compound 46]
Plant response rating, Johnsongrass ([15]; Rate 35 g/ha): 5
Plant response rating, Johnsongrass ([15]; Rate 70 g/ha): 45
Plant response rating, Johnsongrass ([15]; Rate 140 g/ha): 50
Plant response rating, Cocklebur ([16]; Rate 35 g/ha): 0
Plant response rating, Cocklebur ([16]; Rate 70 g/ha): 10
Plant response rating, Cocklebur ([16]; Rate 140 g/ha): 5
Plant response rating, Alexandergrass ([1]; PREEMERGENCE, Rate 125 g/ha): 60
Plant response rating, Alexandergrass ([1]; PREEMERGENCE, Rate 250 g/ha): 60
Plant response rating, Large crabgrass ([2]; PREEMERGENCE, Rate 32 g/ha): 90
Plant response rating, Large crabgrass ([2]; PREEMERGENCE, Rate 64 g/ha): 98
Plant response rating, Sandbur ([4]; Rate 64 g/ha): 10
Plant response rating, Sandbur ([4]; Rate 125 g/ha): 10
Plant response rating, Sandbur ([4]; Rate 250 g/ha): 30
Plant response rating, Spanishneedles ([5]; PREEMERGENCE, Rate 32 g/ha): 65
Plant response rating, Spanishneedles ([5]; PREEMERGENCE, Rate 64 g/ha): 85
Plant response rating, Spanishneedles ([5]; PREEMERGENCE, Rate 125 g/ha): 90
Plant response rating, Spanishneedles ([5]; PREEMERGENCE, Rate 250 g/ha): 90
Plant response rating, Surinam grass ([17]; Rate 125 g/ha): 40
Plant response rating, Surinam grass ([17]; Rate 250 g/ha): 55
Plant response rating, Com. ragweed ([7]; PREEMERGENCE, Rate 64 g/ha): 98
Plant response rating, Com. ragweed ([7]; PREEMERGENCE, Rate 125 g/ha): 98
Plant response rating, P. morninglory ([8]; PREEMERGENCE, Rate 32 g/ha): 65
Plant response rating, P. morninglory ([8]; PREEMERGENCE, Rate 64 g/ha): 65
Plant response rating, P. morninglory ([8]; PREEMERGENCE, Rate 125 g/ha): 65
Plant response rating, P. morninglory ([8]; PREEMERGENCE, Rate 250 g/ha): 65
Plant response rating, Bermudagrass ([9]; Rate 32 g/ha): 70
Plant response rating, Bermudagrass ([9]; Rate 64 g/ha): 98
Plant response rating, Itchgrass ([10]; PREEMERGENCE, Rate 125 g/ha): 40
Plant response rating, Itchgrass ([10]; PREEMERGENCE, Rate 250 g/ha): 40
Plant response rating, Large crabgrass ([18]; Rate 125 g/ha): 100
Plant response rating, Large crabgrass ([18]; Rate 250 g/ha): 100
Plant response rating, Com. ragweed [11]: 100
Plant response rating, Com. purslane ([12]; PREEMERGENCE, Rate 32 g/ha): 100
Plant response rating, Com. purslane ([12]; PREEMERGENCE, Rate 64 g/ha): 100
Plant response rating, Com. purslane ([12]; PREEMERGENCE, Rate 125 g/ha): 100
Plant response rating, Com. purslane ([12]; PREEMERGENCE, Rate 250 g/ha): 100
Plant response rating, Goosegrass ([13]; PREEMERGENCE, Rate 32 g/ha): 85
Plant response rating, Goosegrass ([13]; PREEMERGENCE, Rate 64 g/ha): 90
Plant response rating, Goosegrass ([13]; PREEMERGENCE, Rate 125 g/ha): 98
Plant response rating, Goosegrass ([13]; PREEMERGENCE, Rate 250 g/ha): 100
Plant response rating, Bermudagrass ([14]; Rate 125 g/ha): 100
Plant response rating, Bermudagrass ([14]; Rate 250 g/ha): 100
Plant response rating, Redroot pigweed ([19]; Rate 35 g/ha): 70
Plant response rating, Redroot pigweed ([19]; Rate 70 g/ha): 100
Plant response rating, Redroot pigweed ([19]; Rate 140 g/ha): 100
Plant response rating, Field bindweed ([20]; Rate 35 g/ha): 10
Plant response rating, Field bindweed ([20]; Rate 70 g/ha): 70
Plant response rating, Field bindweed ([20]; Rate 140 g/ha): 100
